Structures can show the parent of a compound that is named as a salt.

For the assay, the system named is ERK 1/2 (p42/44). The experiment in a line: Immunoblot of TPA-induced ERK 1/2 phosphorylation. The assay is classed as cell-based. Conditions: 17.0 μM and 8.5 μM pretreatment. The procedure:
To measure endogenous level of several proteins in response to TPA induction and compound I, HEK293 cells were lysed with RIPA buffer (10 mM Tris-HCl pH 7.5, 1 mM EDTA, 0.1% sodium dodecyl sulfate, 0.1% deoxycholate, and protease inhibitor). Whole cell extracts were subjected to immunoblot analysis with the following antibodies: p65 (F-6), p50 (E-10), p52 (C-5), RelB (C-19), IκBα (C-21), PCNA (F-2) were obtained from Santa Cruz Biotechnology (Santa Cruz, Calif.). IKKα, IKKβ, IKKγ, phospho-IκBα, phospho-IKKα/β, phospho-IKKγ, pohospho-Stat3 (Tyr 705 and Ser 727), phospho-p65 (Ser536 and Ser276), phospho-p44/42, phospho-JNKs were purchased from Cell Signaling (Danvers, Mass.), and α-tubulin from Sigma (St. Louis, Mo.). Nuclear and cytoplasmic extracts were prepared with HEK293 cells by NE-PER Nuclear and Cytoplasmic Extraction Reagents (Pierce Biotechnology, Rockford, Ill.) according to the manufacturer's protocol.
The selectivity of compound I was evaluated by measuring phosphorylation of proteins involved in the AP-1 induction pathway. AP-1 dependent transcription can be activated by MAP Kinases JNK, ERK 1/2 (p44/42). […] At these concentrations compound I, in contrast, completely repressed major regulators in the NFκB activation pathway. JNKs are activated by a variety of environmental stresses responsible for AP-1 activation through c-Jun phosphorylation. […]
(In western blotting, separated proteins are transferred to a membrane and probed.)

For `Cc1cc(N)ccc1N=Nc1ccc(S(=O)(=O)CCOS(=O)(=O)O)cc1` [compound I, 2-(4-((4-amino-2-methylphenyl)diazenyl)phenylsulfonyl)ethyl hydrogen sulfate], the “TPA-induced phosphorylation of endogenous ERK 1/2 (p42/44)” value is “no repression”.

The values are drawn from patent US8729053B2, “Nuclear factor kappa B pathway inhibitor composition and use of same” (The United States of America, as represented by the …, priority 2008, dated 2014).
